Measured values as given in patent publication US20050282818A1, “Ubiquitin ligase inhibitors” (Rigel Pharmaceuticals, Inc., priority 2004, published 2005).
pIC50: −log10 of the molar value.

tested on: ICAM-1 expression in A549 cells; assay: ICAM assay (IL-1 induced ICAM-1/CD54 expression in A549 cells); assay type: cell-based, human; settings: Homo sapiens, A549, ICAM assay
Summary of the method: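 Luminescent immunostaining (anti-CD54, then anti-mouse IgG, 1 h) quantifies ICAM-1 on A549 cells induced 4 h at 37° C by IL-1 (4 μl of 25 ng/ml added). Compound is added 1 h before the cytokine to cells plated overnight at 10,000 per well.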

SMILES | pIC50
O=[N+]([O-])c1ccc(SCCO)c2nonc12 [compound 150, 2-[(7-nitro-2,1,3-benzoxadiazol-4-yl)thio]ethanol] | ≤ 4.70
COC(=O)c1ccc(NS(=O)(=O)c2ccc(F)c3nonc23)cc1 [compound 167, methyl 4-{[(7-fluoro-2,1,3-benzoxadiazol-4-yl)sulfonyl]amino}benzoate] | ≤ 4.70
N#Cc1cccnc1N1CCN(S(=O)(=O)c2ccc(Cl)c3nonc23)CC1 [compound 170, 2-{4-[(7-chloro-2,1,3-benzoxadiazol-4-yl)sulfonyl]piperazin-1-yl}nicotinomtrile] | ≤ 4.70
COC(=O)c1ccc(NS(=O)(=O)c2c(Cl)ccc3nonc23)cc1 [compound 178, methyl 4-{[(5-chloro-2,1,3-benzoxadiazol-4-yl)sulfonyl]amino}benzoate] | ≤ 4.70
N#Cc1ccccc1N1CCN(S(=O)(=O)c2c(Cl)ccc3nonc23)CC1 [compound 180, 2-{4-[(5-chloro-2,1,3-benzoxadiazol-4-yl)sulfonyl]piperazin-1-yl}benzonitrile] | ≤ 4.70
O=S(=O)(c1ccc(Cl)c2nonc12)N1CCN(c2ncccn2)CC1 [compound 184, 4-chloro-7-[(4-pyrimidin-2-ylpiperazin-1-yl)sulfonyl]-2,1,3-benzoxadiazole] | ≤ 4.70
O=S(=O)(c1ccc(Cl)c2nonc12)N1CCN(c2ccccc2)CC1 [compound 186, 4-chloro-7-[(4-phenylpiperazin-1-yl)sulfonyl]-2,1,3-benzoxadiazole] | ≤ 4.70
O=c1[nH]c2ccccc2n1C1CCN(S(=O)(=O)c2ccc(Cl)c3nonc23)CC1 [compound 188, 1-{1-[(7-chloro-2,1,3-benzoxadiazol-4-yl)sulfonyl]piperidin-4-yl}-1,3-dihydro-2H-benzimidazol-2-one] | ≤ 4.70
CC1CC(C)CN(S(=O)(=O)c2ccc(Cl)c3nonc23)C1 (stereo not shown) [compound 192, 4-chloro-7-[(3,5-dimethylpiperidin-1-yl)sulfonyl]-2,1,3-benzoxadiazole] | ≤ 4.70
O=S(=O)(c1c(Cl)ccc2nonc12)N1CCN(c2cnccn2)CC1 [compound 200, 5-chloro-4-[(4-pyrazin-2-ylpiperazin-1-yl)sulfonyl]-2,1,3-benzoxadiazole] | ≤ 4.70
CC(=O)N1CCN(S(=O)(=O)c2c(Cl)ccc3nonc23)CC1 [compound 201, 4-[(4-acetylpiperazin-1-yl)sulfonyl]-5-chloro-2,1,3-benzoxadiazole] | ≤ 4.70
Cc1cccc(N2CCN(S(=O)(=O)c3c(Cl)ccc4nonc34)CC2)n1 [compound 202, 5-chloro-4-{[4-(6-methylpyridin-2-yl)piperazin-1-yl]sulfonyl}-2,1,3-benzoxadiazole] | ≤ 4.70
N#Cc1ccc(N2CCN(S(=O)(=O)c3c(Cl)ccc4nonc34)CC2)nc1 [compound 209, 6-{4-[(5-chloro-2,1,3-benzoxadiazol-4-yl)sulfonyl]piperazin-1-yl}nicotinonitrile] | ≤ 4.70
CC(=O)N1CCN(S(=O)(=O)c2c(Sc3cccc4cccnc34)ccc3nonc23)CC1 [compound 214, 8-({4-[(4-acetylpiperazin-1-yl)sulfonyl]-2,1,3-benzoxadiazol-5-yl}thio)quinoline] | ≤ 4.70
O=S(=O)(Nc1ccc2cn[nH]c2c1)c1ccc(Cl)c2nonc12 [compound 220, 7-chloro-N-1 H-indazol-6-yl-2,1,3-benzoxadiazole-4-sulfonamide] | ≤ 4.70
O=S(=O)(c1ccc(Sc2ccc(O)cc2)c2nonc12)N1CCC(Oc2ncccn2)CC1 [compound 226, 4-[(7-{[4-(pyrimidin-2-yloxy)piperidin-1-yl]sulfonyl}-2,1,3-benzaxadiazol-4-yl)thio]phenol] | ≤ 4.70
O=S(=O)(Nc1ccc(F)c(F)c1)c1ccc(Cl)c2nonc12 [compound 262, 7-chloro-N-(3,4-difluorophenyl)-2,1,3-benzoxadiazole-4-sulfonamide] | ≤ 4.70
O=S(=O)(Nc1cccc(F)c1)c1ccc(Cl)c2nonc12 [compound 263, 7-chloro-N-(3-fluorophenyl)-2,1,3-benzoxadiazole-4-sulfonamide] | ≤ 4.70

target: APC11/APC2 (Homo sapiens, UniProt Q9NYG5+Q9UJX6); assay: APC-11/APC-2 ligase assay (APC auto ubiquitination); assay type: biochemical; settings: APC assay
Sequence (Q9NYG5 whole entry): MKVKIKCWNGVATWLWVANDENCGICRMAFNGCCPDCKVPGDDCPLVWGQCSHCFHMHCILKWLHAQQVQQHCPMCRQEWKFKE
Sequence (Q9UJX6 whole entry): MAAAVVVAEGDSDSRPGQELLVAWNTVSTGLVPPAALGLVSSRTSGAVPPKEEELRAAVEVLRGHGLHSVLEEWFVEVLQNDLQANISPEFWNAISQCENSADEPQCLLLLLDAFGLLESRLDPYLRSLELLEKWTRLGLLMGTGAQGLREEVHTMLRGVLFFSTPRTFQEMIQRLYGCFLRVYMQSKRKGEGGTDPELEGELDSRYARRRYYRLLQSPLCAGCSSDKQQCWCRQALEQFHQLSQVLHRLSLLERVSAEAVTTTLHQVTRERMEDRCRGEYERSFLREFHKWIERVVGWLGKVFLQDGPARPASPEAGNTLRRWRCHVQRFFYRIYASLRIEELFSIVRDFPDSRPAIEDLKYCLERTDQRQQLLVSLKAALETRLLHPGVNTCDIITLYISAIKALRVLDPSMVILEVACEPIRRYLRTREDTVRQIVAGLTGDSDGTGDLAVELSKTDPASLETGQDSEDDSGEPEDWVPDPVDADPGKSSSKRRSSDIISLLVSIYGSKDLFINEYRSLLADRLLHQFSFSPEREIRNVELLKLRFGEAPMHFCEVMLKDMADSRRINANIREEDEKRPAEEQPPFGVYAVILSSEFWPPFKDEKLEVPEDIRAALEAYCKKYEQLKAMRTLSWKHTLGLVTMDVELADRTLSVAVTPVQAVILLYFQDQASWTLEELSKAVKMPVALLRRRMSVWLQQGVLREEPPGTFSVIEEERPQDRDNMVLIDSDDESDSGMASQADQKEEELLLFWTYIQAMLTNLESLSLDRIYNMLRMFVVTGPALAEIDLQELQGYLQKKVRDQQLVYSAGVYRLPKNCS
Summary of the method: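 His-tagged APC was captured on nickel plates with human E1 (5 ng/well), UbcH5c (20 ng/well), APC (100 ng/well) and Flag-ubiquitin (100 ng/well) in a Tris pH 7.6 reaction buffer containing 2.5 mM ATP, for 1 hour at room temperature. Read-out was anti-Flag/HRP chemiluminescence. IC50 was set against a DMSO control, typically from 6 or 8 concentrations.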

SMILES | pIC50
O=[N+]([O-])c1ccc(Sc2cccc3cccnc23)c2nonc12 [compound 5, 8-[(7-Nitro-2,1,3-benzoxadiazol-4-yl)thio]quinoline] | 4.70 to 6.00
O=[N+]([O-])c1ccc(Oc2c(Cl)cc(S(=O)(=O)Nc3cccc4nsnc34)cc2Cl)c(Cl)c1 [compound 73, N-2,1,3-benzothiadiazol-4-yl-3,5-dichloro-4-(2-chloro-4-nitrophenoxy)benzenesulfonamide] | 4.70 to 6.00
O=S(=O)(Nc1cccc2nonc12)c1ccc(Oc2ncc(C(F)(F)F)cc2Cl)cc1 [compound 78, N-2,1,3-benzoxadiazol-4-yl-4-{[3-chloro-5-(trifluoromethyl)pyridin-2-yl]oxy}benzenesulfonamide] | 4.70 to 6.00
O=[N+]([O-])c1ccc(N2CCN(c3cc(C(F)(F)F)ccn3)CC2)c2nonc12 [compound 90, 4-nitro-7-{4-[4-(trifluoromethyl)pyridin-2-yl]piperazin-1-yl}-2,1,3-benzoxadiazole] | 4.70 to 6.00
O=S(=O)(Nc1cccc2nsnc12)c1ccc(Oc2ccccc2)cc1 [compound 94, N-2,1,3-benzothiadiazol-4-yl-4-phenoxybenzenesulfonamide] | 4.70 to 6.00
O=[N+]([O-])c1ccc(N2CCN(c3ncccn3)CC2)c2nonc12 [compound 109, 4-nitro-7-(1,3-(pyrimidin-2-yl)piperazin-1-yl)-2,1,3-benzoxadiazole] | 4.70 to 6.00
O=[N+]([O-])c1ccc(Oc2ccc(S(=O)(=O)Nc3cccc4nonc34)cc2Cl)c(C(F)(F)F)c1 [compound 114, N-2,1,3-benzoxadiazol-4-yl-3-chloro-4-[4-nitro-2-(trifluoromethyl)phenoxy]benzenesulfonamide] | 4.70 to 6.00
N#Cc1ccc(N2CCN(c3ccc([N+](=O)[O-])c4nonc34)CC2)nc1 [compound 121, 6-[4-(7-nitro-2,1,3-benzoxadiazol-4-yl)piperazin-1-yl]nicotinonitrile] | 4.70 to 6.00
Cc1ccc(N2CCN(c3ccc([N+](=O)[O-])c4nonc34)CC2)cc1C [compound 140, 4-[4-(3,4-dimethylphenyl)piperazin-1-yl]-7-nitro-2,1,3-benzoxadiazole] | 4.70 to 6.00
N#CC1(c2ccccc2)CCN(c2ccc([N+](=O)[O-])c3nonc23)CC1 [compound 141, 1-(7-nitro-2,1,3-benzoxadiazol-4-yl)-4-phenylpiperidine-4-carbonitrile] | 4.70 to 6.00
O=C(c1ccc(F)cc1)C1CCN(c2ccc([N+](=O)[O-])c3nonc23)CC1 [compound 142, (4-fluorophenyl)[1-(7-nitro-2,1,3-benzoxadiazol-4-yl)piperidin-4-yl]methanone] | 4.70 to 6.00
CC1CC(C)CN(c2ccc([N+](=O)[O-])c3nonc23)C1 (stereo not shown) [compound 144, 4-(3,5-dimethylpiperidin-1-yl)-7-nitro-2,1,3-benzoxadiazole] | 4.70 to 6.00
Cc1ccc(Cl)cc1N1CCN(c2ccc([N+](=O)[O-])c3nonc23)CC1 [compound 145, 4-[4-(5-chloro-2-methylphenyl)piperazin-1-yl]-7-nitro-2,1,3-benzoxadiazole] | 4.70 to 6.00
O=[N+]([O-])c1ccc(N2CCN(c3ccc(O)cc3)CC2)c2nonc12 [compound 146, 4-[4-(7-nitro-2,1,3-benzoxadiazol-4-yl)piperazin-1-yl]phenol] | 4.70 to 6.00
O=[N+]([O-])c1ccc(N2CCN(c3ncccc3C(F)(F)F)CC2)c2nonc12 [compound 148, 4-nitro-7-{4-[3-(trifluoromethyl)pyridin-2-yl]piperazin-1-yl}-2,1,3-benzoxadiazole] | 4.70 to 6.00
CCOC(=O)c1cc(C#N)c(C)nc1N1CCN(c2ccc([N+](=O)[O-])c3nonc23)CC1 [compound 153, ethyl 5-cyano-6-methyl-2-[4-(7-nitro-2,1,3-benzoxadiazol-4-yl)piperazin-1-yl]nicotinate] | 4.70 to 6.00
O=[N+]([O-])c1ccc(N2CCC(O)(c3ccc(Cl)cc3)CC2)c2nonc12 [compound 159, 4-(4-chlorophenyl)-1-(7-nitro-2,1,3-benzoxadiazol-4-yl)piperidin-4-ol] | 4.70 to 6.00
O=S(=O)(Oc1ccc(N2CCN(S(=O)(=O)c3ccc(Cl)c4nonc34)CC2)cc1)c1ccc(Cl)c2nonc12 [compound 171, 4-{4-[(7-chloro-2,1,3-benzoxadiazol-4-yl)sulfonyl]piperazin-1-yl}phenyl 7-chloro-2,1,3-benzoxadiazole-4-sulfonate] | 4.70 to 6.00
O=S(=O)(c1ccc(Sc2cccc3cccnc23)c2nonc12)N1CCN(c2ncc(C(F)(F)F)cc2Cl)CC1 [compound 177, 8-{[7-({4-[3-chloro-5-(trifluoromethyl)pyridin-2-yl]piperazin-1-yl}sulfonyl)-2,1,3-benzoxadiazol-4-yl]thio}quinoline] | 4.70 to 6.00
O=S(=O)(c1c(N2CCN(c3ccc(Cl)c(C(F)(F)F)c3)CC2)ccc2nonc12)N1CCN(c2ccc(Cl)c(C(F)(F)F)c2)CC1 [compound 181, 5-{4-[4-chloro-3-(trifluoromethyl)phenyl]piperazin-1-yl}-4-({4-[4-chloro-3-(trifluoromethyl)phenyl]piperazin-1-yl}sulfonyl)-2,1,3-benzoxadiazole] | 4.70 to 6.00
Cc1cc(C)cc(-c2ccc([N+](=O)[O-])c3nonc23)c1 [compound 286, 4-(3,5-Dimethylphenyl)-7-nitro-2,1,3-benzoxadiazole] | 4.70 to 6.00
COc1cccc(-c2ccc([N+](=O)[O-])c3nonc23)c1F [compound 314, 4-(2-Fluoro-3-methoxyphenyl)-7-nitro-2,1,3-benzoxadiazole] | 4.70 to 6.00
